From ChEMBL document CHEMBL2331287, “Inhibition of mTOR Kinase and Cancer Treatment” (ACS Med Chem Lett, 2013)

Columns and labels:
[1] = target: mTORC1 (Homo sapiens, UniProt P42345); experiment: Inhibition of mTORC1 in human PC3 cells assessed as reduction in phosphorylated 4E-BP1Thr37/46 level after 90 mins by immunofluorescence assay; format: cell-based, PC-3
[2] = Inhibition of mTORC2 in human PC3 cells assessed as reduction in phosphorylated AKT S473 level after 90 mins by immunofluorescence assay; format: cell-based; conditions: PC-3, 1.5 h

Compound | IC50 [1] | IC50 [2]
Cc1n[nH]c2c1c([C@@H]1C[C@H]3CC[C@@H](C1)N3C(=O)c1nnc[nH]1)nc1c(-c3ccc(-c4ccccc4)nc3)cnn12 | 100 nM | 1 nM
O=C(c1nnc[nH]1)N1[C@@H]2CC[C@H]1C[C@H](c1nc3c(-c4ccc(-c5ncc[nH]5)nc4)cnn3c3[nH]ccc13)C2 | 1 nM | 1 nM
